Source: patent US5550109A, “Inducible defensin peptide from mammalian epithelia” (priority 1994, dated 1996)
Bridges are numbered along the chain shown (N, C = ends). Where no end group is shown, it is not given here. [ ]: non-standard residue; d: D form. pGlu = O=C1CC[C@@H](C(=O)O)N1

Experiments:
Assay in all cases: Minimum inhibitory concentration, 96 well microtitre plate
Type in all cases: cell-based
[1] = system: Pseudomonas aeruginosa (27853); conditions: Pseudomonas aeruginosa (ATCC 27853); 1/4 strength TSB, 1×10^5 /ml
Method: (§1) Antimicrobial activity was determined during the purification process. Approximately 2.5 ml fractions from the P-30 gel filtration column were assessed after drawing fractions and taking an aliquot of the fraction and spotting that fraction on a radial diffusion plate as described by Zasloff, M. (Proc. Natl. Acad. Sci USA 84: 5449-5453, 1987) against E. coli D31 or fungal pathogens such as Candida albicans, Candida tropicalis, or Staphylococcus aureus. (See also, Zasloff et al., Proc. Natl. Acad. Sci. USA 85: 910-913, 1988.) (FIGS. 1B and 1C.) Briefly, the minimal inhibitory concentrations (MIC's) were assessed using a 96 well microtitre plate (Corning Glass Works, Corning, N.Y.). Microorganisms were grown in log phase at 1/4 strength tryptics soy broth (TSB) at a density of 1×10^5 /ml. The assays used 1/4 strength TSB. For each organism, dilutions of peptide were made ranging from >500 μg/ml to 1 μg/ml using 1/4 strength TSB as a dilution buffer. Zones of bacterial growth or lack of growth were assessed under the microscope. MIC's were calculated based the lowest concentration of peptide that inhibited growth.

Candida albicans (14053) = conditions: Candida albicans (ATCC 14053); 1/4 strength TSB, 1×10^5 /ml
Method: as §1

Escherichia coli (D31) = conditions: 1/4 strength TSB, 1×10^5 /ml
Method: as §1

[2] = system: Staphylococcus aureus (29213); conditions: Staphylococcus aureus (ATCC 29213); 1/4 strength TSB, 1×10^5 /ml
Method: as §1

[3] = system: Candida tropicalis (13803); conditions: Candida tropicalis (ATCC 13803); 1/4 strength TSB, 1×10^5 /ml
Method: as §1

Substance	Minimum Inhibitory Concentration [1]	Minimum Inhibitory Concentration (Candida albicans (14053))	Minimum Inhibitory Concentration (Escherichia coli (D31))	Minimum Inhibitory Concentration [2]	Minimum Inhibitory Concentration [3]
Magainin II-amide	13 to 25 µg/mL	50 to 100 µg/mL	13 to 25 µg/mL	50 to 100 µg/mL	13 to 25 µg/mL
[pGlu]GVRNSQSCRRNKGICVPIRCPGSMRQIGTCLGAQVKCCRRK (disulfide 9-38, 16-31, 21-39) [LAP, lingual antimicrobial peptide]	63 to 125 µg/mL	32 to 63 µg/mL	16 to 32 µg/mL	63 to 125 µg/mL	16 to 32 µg/mL
